“Also recorded” adds a separate entry of the source.
Assays:
[1] = system: rats; test: Thermal withdrawal latency, intraplantar LPS inflammatory pain model and non-inflamed controls; type: in vivo, rat; details: for effect on AEPU mediated antihyperalgesia: LPS treated rats, AEPU 50 mg/kg topical; for thermal withdrawal latency in the absence of inflammation: control rats, i.pl. saline; for LPS elicited thermal hyperalgesia (thermal withdrawal latency): rats, i.pl. LPS 10 μg
[2] = system: rats; test: Open field / motor activity; type: in vivo, rat; details: rolipram 0.1 and TPAU 10 mg/kg
[3] = system: C57BL/6 mice; sEH null mice; test: Picrotoxin induced seizures; type: in vivo, mouse
[4] = system: StARD1 mRNA; test: StARD1 expression after rolipram and TPAU, qRT-PCR; type: in vivo, rat; details: rats
Excerpt: Briefly, RNA from whole spinal cord, brain and adrenal gland samples were extracted using a purelink Micro to Midi total RNA purification kit (Invitrogen, CA). The RNA samples were quantified by spectrophotometry and converted to cDNA using a high capacity cDNA reverse transcription kit from Applied Biosystems (CA, USA). Taq-man probe for StARD1 (Rn00580695_ml) was used according to manufacturer's instructions to quantify relative gene expression (Applied Biosystems CA, USA). Experiments were performed in triplicate with glyceraldehyde 3-phosphate dehydrogenase gene serving as the endogenous control. Mean fold expression values from corresponding vehicle treated animal tissues were used as calibrators.
These findings encouraged us to investigate the expression of StARD1 message as a marker of steroidogenic activity. […] Adrenal StARD1 from the same animals was also monitored as a marker of peripheral steroidogenesis.

[5] = system: C57BL/6 mice; test: Pentobarbital induced loss of righting reflex; type: in vivo, mouse; details: pentobarbital 40 mg/kg i.p., TPAU 3 mg/kg, rolipram 1 mg/kg s.c.
Excerpt: Loss of righting was quantified as previously described, with a slightly lower dose of pentobarbital (Pinna, et al. (2004) Proc Natl Acad Sci USA, 101(16), 6222-6225).
In rats, sEHi-PDEi combination led to significant increases in nociceptive thresholds. We asked if co-administration of sEHi-PDEi combination would also enhance GABA-related activity in mice. Loss of righting reflex in pentobarbital administered mice following sEHi and PDEi administration was quantified.

[6] = system: rats; test: Mechanical hind paw withdrawal threshold (Randall-Selitto), non-inflammatory model; type: in vivo, rat
Procedure: Behavioral nociceptive testing was conducted by assessing thermal hindpaw withdrawal latencies (TWL) using a commercial Hargreaves apparatus (IITC, Woodland Hills, Calif.), or by determining mechanical hind paw withdrawal thresholds (MWT) using a digital paw pressure Randall-Selitto instrument (IITC, Woodland Hills, Calif.). On the day of the experiment, rats were transferred to a quiet room, acclimated for 1 hour and their baseline responses were measured. In pilot experiments, the intensity of the thermal stimulus was set to produce a baseline TWL of 7-8 sec. Baseline mechanical hind paw withdrawal thresholds varied between 60-70 grams of force. Immediately following baseline determination all compounds were administered subcutaneously in the following vehicles; Inhibitors of sEH were formulated in trans free oleate and administered in a total volume of 300 µL Rolipram, picrotoxin, flucanozole, miconazole and finasteride were all dissolved in a sterile saline solution containing 25% DMSO and administered in a volume of 50 μl. Caffeine was dissolved in saline and administered in a total volume of 300 μl. All agents were administered subcutaneously into the back. In groups treated with the sEHi, cytochrome P450 inhibitors, finasteride or picrotoxin animals were pretreated one hour before other compounds. In groups treated with the PDEi, immediately following PDEi administration animals were placed in acrylic chambers on a glass platform maintained at a temperature of 30±1° C. for TWL measurement. Three to five TWL measurements were taken at 1-2 min interstimulus intervals following treatments and these were averaged for each animal at each time point. […] The instrument was set to the maximum holding (MH) mode and the readout that elicited a hind paw withdrawal was designated as the threshold. […] Open field activity was quantified using a Plexiglas chamber (40×40×30 cm, length×width×height) imprinted with a 10×10 cm grid. […] The number of crossings were recorded when both hind paws crossed into a neighboring cell. […]

[7] = system: rats; test: Thermal hindpaw withdrawal latency (Hargreaves), non-inflammatory model; type: in vivo, rat
Procedure: Behavioral nociceptive testing was conducted by assessing thermal hindpaw withdrawal latencies (TWL) using a commercial Hargreaves apparatus (IITC, Woodland Hills, Calif.), or by determining mechanical hind paw withdrawal thresholds (MWT) using a digital paw pressure Randall-Selitto instrument (IITC, Woodland Hills, Calif.). On the day of the experiment, rats were transferred to a quiet room, acclimated for 1 hour and their baseline responses were measured. In pilot experiments, the intensity of the thermal stimulus was set to produce a baseline TWL of 7-8 sec. Baseline mechanical hind paw withdrawal thresholds varied between 60-70 grams of force. Immediately following baseline determination all compounds were administered subcutaneously in the following vehicles; Inhibitors of sEH were formulated in trans free oleate and administered in a total volume of 300 µL Rolipram, picrotoxin, flucanozole, miconazole and finasteride were all dissolved in a sterile saline solution containing 25% DMSO and administered in a volume of 50 μl. Caffeine was dissolved in saline and administered in a total volume of 300 μl. All agents were administered subcutaneously into the back. In groups treated with the sEHi, cytochrome P450 inhibitors, finasteride or picrotoxin animals were pretreated one hour before other compounds. In groups treated with the PDEi, immediately following PDEi administration animals were placed in acrylic chambers on a glass platform maintained at a temperature of 30±1° C. for TWL measurement. Three to five TWL measurements were taken at 1-2 min interstimulus intervals following treatments and these were averaged for each animal at each time point. For MWT measurement, 45 minutes following treatment, the probe of the Randall-Selitto paw pressure meter was applied to the dorsal surface of the hind paw. The instrument was set to the maximum holding (MH) mode and the readout that elicited a hind paw withdrawal was designated as the threshold. Three MWT measurements were taken at 1-2 min interstimulus intervals and these were averaged for each animal. Data are presented as percent change from each animal's baseline response. Open field activity was quantified using a Plexiglas chamber (40×40×30 cm, length×width×height) imprinted with a 10×10 cm grid. Animals were placed in the middle of the chamber and observed for two minutes. The number of crossings were recorded when both hind paws crossed into a neighboring cell.
A non-inflammatory model was used to test the hypothesis that elevated intracellular cAMP and EETs will act synergistically in producing antinociception. Intracellular cAMP levels were increased by administering increasing doses of two CNS permeable PDEi; rolipram, a PDE-4 selective inhibitor and caffeine, a non selective PDEi. […]

[8] = system: allopregnanolone; test: Radioimmunoassay of allopregnanolone in spinal cord and brain; type: in vivo, rat; details: rats, increasing rolipram doses, TPAU 10 mg/kg s.c.
Procedure: Radioimmunoassays were conducted as previously described (Janis G, C. et al., Alcoholism: Clinical and Experimental Research 22:2055-2061 (1998)). Briefly, spinal cord and brain samples were weighed and suspended in 2.5 ml of 0.3N NaOH, homogenized with a sonic dismembrator, and extracted three times with 3 ml aliquots of 10% ethyl acetate in heptane (vol/vol). Extraction recovery was monitored by the addition of 2000 cpm of [^3H]allopregnanolone. The extracts were purified using solid phase silica columns (Burdick and Jackson, Muskegon, Mich.) and subsequently dried. Samples were reconstituted and assayed in duplicate by the addition of [^3H]allopregnanolone and anti-allopregnanolone antibody (1:2000; Custom synthesis, Reproductive Endocrine Unit, Massachusetts General Hospital). Total binding was determined in the absence of unlabeled allopregnanolone and nonspecific binding was determined in the absence of antibody. The antibody binding reaction is allowed to equilibrate for 2 hours and cold dextran-coated charcoal was used to separate bound from unbound steroid. Bound radioactivity was determined by liquid scintillation spectroscopy. Steroid levels in the samples were extrapolated from a concurrently run standard curve and corrected for their respective extraction efficiencies. The sensitivity of the assay was 0.63 ng/ml. The intraassay coefficient of variation was <5%.

[9] = system: plasma oxylipins (EETs, DHETs, PGE2); test: Plasma oxylipin analysis in LPS treated rats; type: in vivo, rat
Excerpt: Plasma was collected by cardiac puncture under deep anesthesia. Rats were anesthetized by isoflurane overdose and decapitated. Whole brains were immediately excised and flash frozen. […] Dorsal roots were excluded.

[10] = system: circulating testosterone and progesterone; test: Circulating steroid hormone levels by RIA; type: in vivo, rat; details: rats
[11] = Brain, blood and plasma inhibitor levels, LC-ESI-MS/MS; details: 10 mg/kg TPAU, 40 mg/kg AUDA; unpublished results
[12] = system: rats; test: Streptozocin induced diabetic neuropathy, Von Frey mechanical allodynia; type: in vivo, rat; details: Von Frey's test
Procedure: The study was approved by UC Davis Animal Care and Use Committee. Male Sprague-Dawley rats weighing 250-350 g were obtained from Charles River Inc. Two models of inflammatory pain and one model of diabetic neuropathic pain were used to test the effects of sEHI. The main inflammatory pain model used involved intraplantar LPS (10 μg/animal) administration as described previously (Inceoglu B et al., Life Sci 79:2311-2319 (2006)). Briefly, following baseline thermal withdrawal latency and mechanical withdrawal threshold determination LPS (in saline) was administered into one hind paw and nociceptive thresholds were monitored over time. The other inflammatory pain model involved intraplantar carrageenan (1% in saline, 50 μl) administration and was only used when sEHI was administered into the spinal cord. Intrathecal catheters were implanted according to Yaksh and Rudy (Yaksh T L and Rudy T A, Physiol Behav 17(6):1031-1036 (1976)). Following baseline nociceptive response measurements carrageenan was administered into one hind paw and responses were monitored over time and after intraspinal sEHI administration. […] In experiments in which EETs, sEHI and cAMP analogue was administered intraspinally animals were maintained under deep anesthesia and therefore nociceptive thresholds were not determined.

[13] = system: StARD1 mRNA; test: StARD1 mRNA 30 min after intraspinal 8-Br cAMP, EETs, AEPU in non-inflamed rats; type: in vivo, rat; details: 8-Br cAMP 100 μg, EETs 5 μg, AEPU 1 μg
Procedure: To investigate the cooperation between cAMP and EETs in the spinal cord, a membrane permeable cAMP analogue, 8-Br cAMP (100 μg), was administered into the spinal cord by lumbar puncture (between L4-L5) and rapid (30 min.) expression of StARD1 mRNA in the spinal cord and the brain was quantified by qRT-PCR. In these experiments animals were maintained under deep anesthesia.

[14] = one hour, increasing rolipram doses, TPAU 10 mg/kg

CC1(C)NC(=O)N(c2ccc([N+](=O)[O-])c(C(F)(F)F)c2)C1=O [nilutamide]
effect on AEPU mediated antihyperalgesia [1]: did not block

CC(=O)S[C@@H]1CC2=CC(=O)CC[C@]2(C)[C@H]2CC[C@@]3(C)[C@@H](CC[C@@]34CCC(=O)O4)[C@H]12 [spironolactone]
effect on AEPU mediated antihyperalgesia [1]: did not block

COc1ccc(C2CNC(=O)C2)cc1OC1CCCC1 (centres unmarked) [Rolipram]
open field activity / motor function [2]: depression of activity | time to onset of picrotoxin induced seizures ([3]; C57BL/6 mice, picrotoxin 10 mg/kg s.c., TPAU 3 mg/kg, rolipram 1 mg/kg s.c.): no effect | onset of picrotoxin induced seizures in sEH null mice ([3]; sEH null mice, increasing doses): delayed in a dose dependent manner | decrease in adrenal gland StARD1 expression [4]: 30% | brain StARD1 expression [4, 14]: no change | spinal cord StARD1 expression [4, 14]: biphasic increase | duration of pentobarbital induced loss of righting response [5]: no effect; also recorded: did not change | ED50 ([6]; Rattus norvegicus, sc, rats, rolipram dose, AUDA 40 mg/kg): 0.3 mg/kg | ED50 ([7]; Rattus norvegicus, sc): 0.53 mg/kg | efficacy, increase over baseline in thermal withdrawal latency ([7]; rats, s.c.): 202% | brain allopregnanolone levels [8]: significantly increased allopregnanolone levels at one dose point only | spinal cord allopregnanolone levels [8]: did not change

CC/C(=C(\c1ccccc1)c1ccc(OCCN(C)C)cc1)c1ccccc1 [tamoxifen]
effect on AEPU mediated antihyperalgesia [1]: did not block

CCC1(c2ccc(N)cc2)CCC(=O)NC1=O (centres unmarked) [aminoglutethimide]
plasma EET/DHET ratio ([9]; LPS and AEPU-treated rats): did not change | antagonism of sEHI reduction of PGE2 ([9]; LPS+AEPU+AGL treated rats): did not antagonize | circulating / plasma progesterone level [10]: significantly reduced | effect on AEPU mediated antihyperalgesia [1]: blocked | thermal withdrawal latency in the absence of inflammation [1]: failed to alter | LPS elicited thermal hyperalgesia (thermal withdrawal latency) [1]: failed to alter

OC(Cn1cncn1)(Cn1cncn1)c1ccc(F)cc1F [Flucanozole]
effect on the dose-effect curve of rolipram (antinociception) ([7]; rats, s.c.): antagonized

CC#C[C@]1(O)CC[C@H]2[C@@H]3CCC4=CC(=O)CCC4=C3[C@@H](c3ccc(N(C)C)cc3)C[C@@]21C [mifepristone]
effect on AEPU mediated antihyperalgesia [1]: did not block

Clc1ccc(COC(Cn2ccnc2)c2ccc(Cl)cc2Cl)c(Cl)c1 (centres unmarked) [miconazole]
effect on the dose-effect curve of rolipram (antinociception) ([7]; rats, s.c.): failed to change

picrotoxin
effect on rolipram+AUDA increase in mechanical withdrawal threshold ([6]; picrotoxin 0.25 mg/kg): antagonized | effect on rolipram+AUDA antinociception, thermal withdrawal ([7]; picrotoxin 0.25 mg/kg): antagonized | baseline nociceptive responses, given alone ([7]; picrotoxin 0.25 mg/kg s.c.): did not change baseline responses

O=C(O)CCCCCCCCCCCNC(=O)NC12CC3CC(CC(C3)C1)C2 [AUDA, 12-(3-Adamantan-1-yl-ureido)dodecanoic acid]
plasma inhibitor levels relative to rat sEH IC50 [11]: 200 fold | mechanical allodynia elicited by streptozocin induced diabetic neuropathy [12]: reduced | effect on caffeine's increase of mechanical withdrawal threshold ([6]; rats, AUDA 40 mg/kg): enhanced | thermal withdrawal latency, sEHi alone ([7]; rats, s.c., over 4 hours, vs baseline): no significant differences

CC(C)(C)NC(=O)[C@H]1CC[C@H]2[C@@H]3CC[C@H]4NC(=O)C=C[C@]4(C)[C@H]3CC[C@]12C [finasteride]
effect on AEPU mediated antihyperalgesia [1]: blocked | thermal withdrawal latency in the absence of inflammation [1]: failed to alter | LPS elicited thermal hyperalgesia (thermal withdrawal latency) [1]: failed to alter | effect on the dose-effect curve of rolipram (antinociception) ([7]; rats, s.c.): antagonized

Nc1ncnc2c1nc(Br)n2[C@@H]1O[C@@H]2COP(=O)(O)O[C@H]2[C@H]1O [8-Br cAMP]
brain StARD1 expression [13]: Neither brain nor spinal StARD1 expression changed | spinal StARD1 expression [13]: without effect

Cn1c(=O)c2c(ncn2C)n(C)c1=O [caffeine]
open field activity / motor function [2]: did not cause depression of motor activity

Source: patent US20110230504A1, “ALLEVIATING DISORDERS WITH COMBINING AGENTS THAT INCREASE EPOXYGENATED FATTY ACIDS AND AGENTS THAT INCREASE cAMP” (The Regents Of The University Of California Office Of …, priority 2008, published 2011)
